Results from patent US7994211B2, “Bicyclo[2.2.1]hept-7-ylamine derivatives and their uses” (Argenta Discovery Limited, priority 2005, dated 2011).

Target: T1, human β2 adrenergic receptor (Homo sapiens, UniProt P07550)
T1 construct: purchased
Test: β-Adrenergic receptor radioligand binding assay ([125I]-Iodocyanopindolol)
Conditions: not given
Method: Radioligand binding studies utilising [^125I]-Iodocyanopindolol and commercially available cell membranes expressing the human β2 adrenergic receptor were used to assess the affinity of antagonists for β2-adrenergic receptor. Membranes and SPA-beads were incubated with [^125I]-Iodocyanopindolol and β2 antagonist at various concentrations for 3 hours at ambient temperature in TRIS buffer. The assay was performed in 96-well plates which were read using the Wallac Microbeta counter.

T1 sequence (P07550 whole entry): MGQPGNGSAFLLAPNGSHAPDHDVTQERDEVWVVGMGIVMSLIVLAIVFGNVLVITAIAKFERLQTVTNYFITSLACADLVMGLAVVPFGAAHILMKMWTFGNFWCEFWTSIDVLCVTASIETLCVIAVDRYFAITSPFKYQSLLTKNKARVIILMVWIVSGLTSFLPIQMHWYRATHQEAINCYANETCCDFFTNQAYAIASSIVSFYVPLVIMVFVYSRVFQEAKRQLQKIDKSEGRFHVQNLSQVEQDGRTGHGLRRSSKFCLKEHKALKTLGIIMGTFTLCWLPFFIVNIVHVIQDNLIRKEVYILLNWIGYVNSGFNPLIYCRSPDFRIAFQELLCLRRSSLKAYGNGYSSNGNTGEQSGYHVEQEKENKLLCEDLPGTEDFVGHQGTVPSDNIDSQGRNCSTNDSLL

SMILES	Ki [nM]
CN(CCCCCCCCCNC[C@H](O)c1ccc(O)c2[nH]c(=O)ccc12)[C@H]1[C@H]2CC[C@@H]1[C@H](OC(=O)C(O)(c1cccs1)c1cccs1)C2 [Example 41, Hydroxy-di-thiophen-2-yl-acetic acid (1S,2R,4S,7S)-7-({9-[(R)-2-hydroxy-2-(8-hydroxy-2-oxo-1,2-dihydro-quinolin-5-yl)-ethylamino]-nonyl}-methyl-amino)-bicyclo[2.2.1]hept-2-yl ester]	< 100

Target: T2, human muscarinic receptors (M3) (Homo sapiens, UniProt P20309)
T2 construct: purchased
T2 sequence (P20309 whole entry): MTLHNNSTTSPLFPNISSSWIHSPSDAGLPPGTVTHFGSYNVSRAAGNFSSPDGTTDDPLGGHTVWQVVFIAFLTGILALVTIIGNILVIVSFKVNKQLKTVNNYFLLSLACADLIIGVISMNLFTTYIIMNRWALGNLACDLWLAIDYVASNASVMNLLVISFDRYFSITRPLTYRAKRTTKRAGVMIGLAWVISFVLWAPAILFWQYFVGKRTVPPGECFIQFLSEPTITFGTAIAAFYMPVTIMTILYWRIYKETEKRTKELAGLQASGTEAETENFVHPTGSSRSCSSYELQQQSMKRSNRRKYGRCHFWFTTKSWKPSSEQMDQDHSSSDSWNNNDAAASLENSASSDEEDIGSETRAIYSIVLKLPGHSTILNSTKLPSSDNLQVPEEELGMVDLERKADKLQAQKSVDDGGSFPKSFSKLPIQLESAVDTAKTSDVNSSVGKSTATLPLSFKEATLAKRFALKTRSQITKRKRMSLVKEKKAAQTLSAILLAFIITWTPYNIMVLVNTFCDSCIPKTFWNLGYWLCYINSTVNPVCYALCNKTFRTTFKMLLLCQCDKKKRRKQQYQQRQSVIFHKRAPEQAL
Test: Muscarinic receptor radioligand binding assay ([3H]-NMS)
Conditions: membranes expressing human M3 receptor, read-out: Binding potency (M3 binding potencies, Ki values)
Method: Radioligand binding studies utilising [^3H]-N-methyl scopolamine ([^3H]-NMS) and commercially available cell membranes expressing the human muscarinic receptors (M2 and M3) were used to assess the affinity of muscarinic antagonists for M2 and M3 receptors. Membranes in TRIS buffer were incubated in 96-well plates with [^3H]-NMS and M3 antagonist at various concentrations for 3 hours. Membranes and bound radioligand were then harvested by filtration and allowed to dry overnight. Scintillation fluid was then added and the bound radioligand counted using a Canberra Packard Topcount scintillation counter.

Ki [nM]	SMILES
< 1	CN(C)C1C2CCC1C(OC(=O)Nc1ccccc1-c1ccccc1)C2 (racemic) [Example 1, (±)-anti-Biphenyl-2-yl-carbamic acid 7-dimethylamino-bicyclo[2.2.1]hept-2-yl ester]
1 to 10	C[N+](C)(C)C1C2CCC1C(OC(=O)Nc1ccccc1-c1ccccc1)C2 (racemic) [Example 8, (±)-syn-[2-(Biphenyl-2-ylcarbamoyloxy)-bicyclo[2.2.1]hept-7-yl]-trimethyl-ammonium iodide]
< 1	CN(C)C1C2CCC1C(OC(=O)Nc1ccccc1-c1ccccc1)C2 (single isomer, unassigned) [Example 2, anti-Biphenyl-2-yl-carbamic acid 7-dimethylamino-bicyclo[2.2.1]hept-2-yl ester]
1 to 10	CN(C)C1C2CCC1C(OC(=O)Nc1ccccc1-c1ccccc1)C2 (single isomer, unassigned) [Example 3, anti-Biphenyl-2-yl-carbamic acid 7-dimethylamino-bicyclo[2.2.1]hept-2-yl ester]
1 to 10	CN(C)C1C2CCC1C(OC(=O)Nc1ccccc1-c1ccccc1)C2 (single isomer, unassigned) [Example 6, syn-Biphenyl-2-yl-carbamic acid 7-dimethylamino-bicyclo[2.2.1]hept-2-yl ester]
1 to 10	CN(C)C1C2CCC1C(OC(=O)Nc1ccccc1-c1ccccc1)C2 (single isomer, unassigned) [Example 7, syn-Biphenyl-2-yl-carbamic acid 7-dimethylamino-bicyclo[2.2.1]hept-2-yl ester]
> 10	CN(CCCOc1ccccc1)C1C2CCC1C(OC(=O)Nc1ccccc1-c1ccccc1)C2 (single isomer, unassigned) [Example 10, anti-Biphenyl-2-yl-carbamic acid-7-[methyl-(3-phenoxy-propyl)-amino]-bicyclo[2.2.1]hept-2-yl ester]

The next lines start with the molecule.

SMILES	Ki [nM]
CN(CCCOc1ccccc1)C1C2CCC1C(OC(=O)Nc1ccccc1-c1ccccc1)C2 (single isomer, unassigned) [Example 9, anti-Biphenyl-2-yl-carbamic acid-7-[methyl-(3-phenoxy-propyl)-amino]bicyclo[2.2.1]hept-2-yl ester]	> 10
C[N+](C)(CCCOc1ccccc1)C1C2CCC1C(OC(=O)Nc1ccccc1-c1ccccc1)C2 (single isomer, unassigned) [Example 11]	< 1
C[N+](C)(CCCOc1ccccc1)C1C2CCC1C(OC(=O)Nc1ccccc1-c1ccccc1)C2 (single isomer, unassigned) [Example 12]	< 1
CN(CCCOc1ccccc1)C1C2CCC1C(OC(=O)C1c3ccccc3Oc3ccccc31)C2 [Example 34, anti-(1S,2R) 9H-Xanthene-9-carboxylic acid 7-[methyl-(3-phenoxy-propyl)-amino]-bicyclo[2.2.1]hept-2-yl ester]	1 to 10
C[N+](C)(CCCOc1ccccc1)C1C2CCC1C(OC(=O)C1c3ccccc3Oc3ccccc31)C2 [Example 36, anti-(1S,2R) Dimethyl-(3-phenoxy-propyl)-[2-(9H-xanthene-9-carbonyloxy)-bicyclo[2.2.1]hept-7-yl]-ammonium bromide]	< 1
C[N+](C)(CCCOc1ccccc1)C1C2CCC1C(OCC(O)(c1ccccc1)c1ccccc1)C2 [Example 40, anti-(1S,2R) 2-(2-Hydroxy-2,2-diphenyl-ethoxy)-bicyclo[2.2.1]hept-7-yl]-dimethyl-(3-phenoxy-propyl)-ammonium bromide]	> 10
